Assay results published in PMC6349357, “Computational and experimental analysis of bioactive peptide linear motifs in the integrin adhesome” (PLoS ONE, 2019).
Marks after values point to notes of the source that are not given here. No end group written: not given here. *: point of attachment. Palmitoyl = CCCCCCCCCCCCCCCC(=O)*

How the values were obtained:
[1] = test system: resting platelets; test: Platelet aggregation induced by peptide in resting washed platelets (activation); assay type: cell-based, human (healthy volunteers); conditions: for Platelet activation, donor 14 06 13 / Platelet activation, donor 18 06 13 / Platelet activation, donor 22 08 13 DONOR1 / Platelet activation, donor 22 08 13 DONOR2: Fig S10 sheet
In short: (§1)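 Aggregation was read by optical density at 37°C under 1100 rpm stirring. Samples were 3x10^5/μl washed human platelets, rested 45 min and supplemented with 1.8 mM calcium chloride. Peptide went in at 2 min, followed 6 min later by TRAP at an experiment-dependent concentration, with 7 min further recording.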

[2] = target: T1, vinculin (Homo sapiens, UniProt P18206); test: Surface plasmon resonance, peptides injected over immobilised vinculin; assay type: binding; conditions: SPR, CM5 chip, serial peptide injections at 1 mM; rank order
T1 sequence (P18206 1-1066 isoform P18206-2): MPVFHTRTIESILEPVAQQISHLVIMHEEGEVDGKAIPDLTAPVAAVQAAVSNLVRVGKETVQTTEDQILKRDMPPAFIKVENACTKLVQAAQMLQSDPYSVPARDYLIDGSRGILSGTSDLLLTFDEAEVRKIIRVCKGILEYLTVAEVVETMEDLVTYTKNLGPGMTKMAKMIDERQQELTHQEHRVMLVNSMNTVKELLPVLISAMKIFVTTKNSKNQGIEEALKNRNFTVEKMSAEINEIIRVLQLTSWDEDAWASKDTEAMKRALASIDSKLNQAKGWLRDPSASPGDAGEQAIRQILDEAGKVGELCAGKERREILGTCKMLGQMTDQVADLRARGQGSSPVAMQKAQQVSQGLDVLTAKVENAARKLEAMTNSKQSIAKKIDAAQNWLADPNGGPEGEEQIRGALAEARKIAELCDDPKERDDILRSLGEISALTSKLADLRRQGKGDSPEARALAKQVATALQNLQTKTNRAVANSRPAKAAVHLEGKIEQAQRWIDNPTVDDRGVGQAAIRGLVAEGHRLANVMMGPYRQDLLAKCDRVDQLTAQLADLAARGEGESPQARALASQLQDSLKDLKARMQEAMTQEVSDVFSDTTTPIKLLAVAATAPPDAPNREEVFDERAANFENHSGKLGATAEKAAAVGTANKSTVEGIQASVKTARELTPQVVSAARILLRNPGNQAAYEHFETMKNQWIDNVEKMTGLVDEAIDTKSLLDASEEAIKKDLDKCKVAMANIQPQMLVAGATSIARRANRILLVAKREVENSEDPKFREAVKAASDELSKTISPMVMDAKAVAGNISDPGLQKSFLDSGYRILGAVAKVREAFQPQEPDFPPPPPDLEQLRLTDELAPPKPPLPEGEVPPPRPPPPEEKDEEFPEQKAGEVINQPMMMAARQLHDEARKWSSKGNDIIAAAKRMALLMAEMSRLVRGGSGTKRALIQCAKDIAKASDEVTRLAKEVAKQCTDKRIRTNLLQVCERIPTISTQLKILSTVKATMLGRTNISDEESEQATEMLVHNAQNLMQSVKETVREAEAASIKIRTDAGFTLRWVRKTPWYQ
Description: The SPR experiments were performed using a Biacore T200 system (GE Healthcare), and Series S CM5 or SA chips with 4 flow cells each.
Lyophilized vinculin was dissolved in flow buffer to a concentration of 1 mg/ml and covalently coupled onto the carboxymethylated dextran matrix of CM5 sensor chips using standard amine coupling. The flow buffer contained 10 mM HEPES, 150 mM NaCl, 3 mM EDTA, 0.05% surfactant P20. The chip was activated with an injection of 70 μl of a mixture of 0.05 M EDC and 0.2 M NHS, followed by the injection of approximately 70 μl of 10 μg/ml vinculin in 10 mM sodium acetate, pH 5.0 in one flow cell to yield a response of 7200 RU. Remaining reactive groups in the channel were blocked with an injection of 100 μl ethanolamine. Binding experiments were performed by injecting peptides for 120 s at a flow rate of 20 μl/min, at a concentration of 1 mM in the flow buffer over the chip surface to monitor association kinetics, followed by buffer flow for 120 s to measure dissociation kinetics. Between experiments, the surface was regenerated by injecting a 60 second pulse of 10 mM glycine pH 2.

[3] = target: vinculin (UniProt P18206)
[4] = assay type: physicochemical
Description: Peptides were stored in powder form at -80°C. Prior to use, they were left at room temperature for one hour. They were then mixed with a specific volume of deionised water to bring them to a 1mM concentration and were then aliquoted and frozen at -80°C. They were thawed a single time before use and discarded after an experiment. Peptides which were not soluble in deionised water (pal-APTNEFYA, pal-LEEDDEEGE, pal-TNITYRGT and pal-KLLITIHDRKE) were dissolved in a 10% DMSO and 90% deionised water solution (leading to a final concentration of 0.2% DMSO when combined with platelets, see below). These peptides were further diluted during platelet aggregations.

[5] = test system: TRAP-activated platelets; test: Inhibition of TRAP-induced platelet aggregation after pre-incubation with peptide; assay type: cell-based, human (healthy volunteers)
In short: as §1

[6] = target: Syntenin-1 (UniProt O00560)
[7] = replicate 14_06_13, peptide 50 µM, unit assumed
[8] = replicate 18_06_13, peptide 50 µM, unit assumed
[9] = replicate 22_08_13_DONOR1, peptide 50 µM, unit assumed
[10] = replicate 22_08_13_DONOR2, peptide 50 µM, unit assumed

Sequence of Syntenin-1 (O00560 whole entry): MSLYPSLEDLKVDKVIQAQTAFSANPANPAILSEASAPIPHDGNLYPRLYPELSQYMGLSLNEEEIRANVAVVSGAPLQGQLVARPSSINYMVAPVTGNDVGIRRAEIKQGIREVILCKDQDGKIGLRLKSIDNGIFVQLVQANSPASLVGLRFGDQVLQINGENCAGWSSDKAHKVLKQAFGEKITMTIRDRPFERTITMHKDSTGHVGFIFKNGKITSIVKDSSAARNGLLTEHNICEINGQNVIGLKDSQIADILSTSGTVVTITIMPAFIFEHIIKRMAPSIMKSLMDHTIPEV

## ACTN1_VBS: ACTN1_VBS peptide lacking the tat (WEQLLTTIARTINEVENQI)
[1]; [7]
  Platelet activation, donor 14 06 13: 35%
[1]; [8]
  Platelet activation, donor 18 06 13: 11%
[1]; [9]
  Platelet activation, donor 22 08 13 DONOR1: 7%
[1]; [10]
  Platelet activation, donor 22 08 13 DONOR2: 11%
[2]
  Relative binding affinity to immobilised vinculin: tat-ACTN1_VBS > TLN1_VBS-tat > ACTN1_VBS-tat > ACTN1_VBS

## ACTN1_VBS-tat: ACTN1 vinculin-binding peptide with the tat peptide at the C-terminus (WEQLLTTIARTINEVENQIGRKKRRQRRRPPQ)
[1]; [7]
  Platelet activation, donor 14 06 13: 45%
[1]; [8]
  Platelet activation, donor 18 06 13: 11%
[1]; [9]
  Platelet activation, donor 22 08 13 DONOR1: 32%
[1]; [10]
  Platelet activation, donor 22 08 13 DONOR2: 4%
[1]; S10 Fig, peptide 50 µM, in words
  Platelet activating effect compared with N-terminal tat attachment: weaker platelet activating effect
[2]
  Relative binding affinity to immobilised vinculin: tat-ACTN1_VBS > TLN1_VBS-tat > ACTN1_VBS-tat > ACTN1_VBS

## tat-ACTN1_VBS (peptide)
[3]
  Activation: platelet aggregation induced in resting platelets after 6 minutes incubation with peptides (50μM): 66

## pal-APTNEFYA [pal-SDC4_tail, N-terminally palmitylated syndecan-4 tail peptide]
[4]
  Solubility in deionised water: not soluble
[5]; S2 Table A, peptide 20 μM, TRAP 4 μM, mean, n=6
  Aggregation (inhibition effects of syndecan-derived peptides): 34
[5]; S2 Table B / S2 Fig, 20 μM, activation of resting platelets and inhibition of aggregation induced by 4 μM TRAP, in words
  Summary of effects of SDC4-derived palmitylated peptides and scrambled controls, 20μM: Inhibitor
[5]; S3 Table, peptide 5 μM, aggregation after TRAP, n=3
  Platelet aggregation remaining after TRAP (low = inhibition): 61
[5]; S3 Table, peptide 20 μM, aggregation after TRAP, n=3
  Platelet aggregation remaining after TRAP (low = inhibition): 34
[5]; TRAP 2 μM after 6 minutes pre-incubation, 4 μM pal-peptides, 10 μM tat-peptides, mean n = 3
  Aggregation after TRAP, peptide alone 1x (A 1x / B 1x): 27.67
[5]; TRAP 2 μM after 6 minutes pre-incubation, double concentration of 4 μM (pal) / 10 μM (tat), mean n = 3
  Aggregation after TRAP, peptide alone 2x (A 2x / B 2x): 24.67
[5]; platelet aggregation induced by 4 μM TRAP in platelets pre-incubated with peptide (low value = inhibition), pal-peptides 20 μM, tat-peptides 50 μM, mean, n>=3
  Platelet aggregation after TRAP activation: 34 ^*
[5]; replicate 14_06_13, peptide 20 μM, TRAP 4 μM
  Inhibition, donor 14_06_13: 40
[5]; replicate 18_06_13, peptide 20 μM, TRAP 4 μM
  Inhibition, donor 18_06_13: 67
[5]; replicate 20_06_13, peptide 20 μM, TRAP 4 μM
  Inhibition, donor 20_06_13: 51
[5]; replicate 20_08_13, peptide 20 μM, TRAP 4 μM
  Inhibition, donor 20_08_13: 11
[5]; replicate 22_08_13_DONOR1, peptide 20 μM, TRAP 4 μM
  Platelet aggregation remaining after TRAP (low = inhibition): 6
[5]; replicate 22_08_13_DONOR2, peptide 20 μM, TRAP 4 μM
  Platelet aggregation remaining after TRAP (low = inhibition): 34
[5]; replicate donor d, TRAP 4 μM, pal 20 μM, tat 50 μM
  Aggregation after TRAP activation, donor d: 9
[5]; replicate donor f, TRAP 4 μM, pal 20 μM, tat 50 μM
  Aggregation after TRAP activation, donor f: 54
[5]; replicate donor g, TRAP 4 μM, pal 20 μM, tat 50 μM
  Aggregation after TRAP activation, donor g: 41
[1]; S3 Table, peptide 5 μM, n=3, unit assumed
  Activation, 5μM: 2%
[1]; S3 Table, peptide 20 μM, n=3, unit assumed
  Activation, 20μM: 2%
[1]; platelet aggregation in resting platelets after 6 minutes incubation with peptide, pal-peptides 20 μM, tat-peptides 50 μM, optical density, aggregometer, mean, n>=3, unit assumed
  Activation: 7%
[1]; replicate 14_06_13, SDC4 peptides and controls, 20 μM, unit assumed
  Activation, donor 14 06 13: 2%
[1]; replicate 18_06_13, SDC4 peptides and controls, 20 μM, in % (unit assumed)
  Activation, donor 18_06_13: 3
[1]; replicate 20_06_13, SDC4 peptides and controls, 20 μM, in % (unit assumed)
  Activation, donor 20_06_13: 2
[1]; replicate 20_08_13, SDC4 peptides and controls, 20 μM, unit assumed
  Activation, donor 20 08 13: 5%
[1]; replicate 22_08_13_DONOR1, SDC4 peptides and controls, 20 μM
  Activation, donor 22_08_13_DONOR1: 2
[1]; replicate 22_08_13_DONOR2, SDC4 peptides and controls, 20 μM
  Activation, donor 22_08_13_DONOR2: 2
[1]; replicate donor d, pal 20 μM, tat 50 μM
  Aggregation before TRAP activation, donor d: 2
[1]; replicate donor f, pal 20 μM, tat 50 μM
  Aggregation before TRAP activation, donor f: 4
[1]; replicate donor g, pal 20 μM, tat 50 μM
  Aggregation before TRAP activation, donor g: 15

## Palmitoyl-APTNEFYA [pal-SDC4_tail]
[6]
  Inhibition: platelet aggregation induced by 4μM TRAP in platelets pre-incubated with peptide (20μM): 34
